Test results published in ChEMBL document CHEMBL1201862, “PubChem BioAssay data set” (2004).
The source made the active and inactive calls.

Columns and labels:
Cryptococcus neoformans [1] = assay: PubChem AID 686997; type: functional, organism-based
Cryptococcus neoformans [2] = assay: Cryptococcus growth inhibition by alamar blue – cell lysis, cherry-picks, replicate tests, mechanism study for C. neoformans antifungal project, dose response (AID 686999); type: functional, organism-based
[3] = Late stage assay provider results from the probe development effort to identify inhibitors of the Plasmodium falciparum M17 Leucine Aminopeptidase (M17LAP): radiolabel-based cell-based dose response assay to identify compounds that inhibit P. falciparum growth in RBCs Set 2.; type: functional
[4] = inhibition of mouse IRAP aminopeptidase activity – biochemical, Leu-AMC fluorescence, cherry-picked samples, set 2, selectivity assay for ERAP1 modulator project, dose response (AID 743340)
[5] = non-specific 3'UTR reporter inhibition in Clone20-Shn3RL – cell-based, Renilla luciferase, cherry-picked, counter-screen for Shn3 inhibitor project, dose response (AID 624133); type: functional
[6] = Shn3 3'UTR reporter signal decrease – cell-based, Clone20 osteoblasts, firefly luciferase, cherry-pick, set 2, Schnurri-3 inhibitor project, dose response (AID 720490); type: functional;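 note: actives lower the luminescence signal as inhibitors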
[7] = reduction of Shn3 3'UTR-driven luciferase in osteoblasts – cell-based, Clone20 osteoblasts, firefly luciferase, cherry-picked, dose response (AID 624132); type: functional;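 note: firefly luciferase luminescence from reporter carrying the Shn3 3'UTR in osteoblasts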
[8] = loss of viability in HepG2 cells – cell-based, CellTiter-Glo, cherry-picked, cytotoxicity control for Shn3 inhibitor project, dose response (AID 624134); type: functional
[9] = EF1alpha-driven Renilla reporter with control 3'UTR suppression – Clone20-Shn3RL cells, dual-Glo, cherry-pick, set 2, counter-screen for Shn3 3'UTR targeting project, dose response (AID 720724); type: functional, cell-based; details: Dual-Go Shn3RL
[10] = NIH-3T3 fibroblast cytotoxicity, dose response, cytotoxicity control, cell-based, fluorescence, Alamar Blue, secondary assay (AID 2327); type: functional;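 note: NIH-3T3 mouse fibroblasts cultured with fluconazole at 8 µg/mL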
[11] = HGIII-sPLA2 enzyme inhibition potency – biochemical, QFRET, IC50, dose response (AID 743457);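 note: green fluorescence rise as the enzyme cleaves BODIPY PC-A2 in liposomes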
[12] = fluconazole-exposed Candida albicans growth modulators – fluorescence, retest, confirmation (AID 2467); type: functional, cell-based
Vero = assay: cells; type: functional; details: Chlorocebus sabaeus
[13] = system: Streptococcus sp. 'group A'; assay: Streptococcus pyogenes SK(-)GAS viability under kanamycin – luminescence, BacTiterGlo, confirmation, counter-screen for streptokinase expression inhibitor project, dose response (AID 1900); type: functional, organism-based
[14] = Trypanosoma cruzi growth suppression in host cells – NIH3T3 host cells, beta-gal luminescence, confirmation (AID 2044); type: functional, cell-based;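 note: intracellular parasites grown in NIH/3T3 mouse fibroblasts as host cells; luminescent beta-galactosidase reporter signal from transgenic T. cruzi replicating inside host cells; inhibitors lower the luminescence signal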
Streptococcus = assay: GAS UMAA2166 growth inhibition – luminescence, BacTiterGlo, counter-screen for streptokinase expression inhibitor project, dose response (AID 1915); type: functional, organism-based;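 note: potency for reduction of bacterial viability or growth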
[15] = target: Metabotropic glutamate receptor 3 (Rattus norvegicus, UniProt P31422); assay: inhibition of rat mGlu3 glutamate signaling – HEK/GIRK cells, thallium flux, dose response (AID 651839); type: functional
Metabotropic glutamate receptor 3, sequence (P31422 whole entry): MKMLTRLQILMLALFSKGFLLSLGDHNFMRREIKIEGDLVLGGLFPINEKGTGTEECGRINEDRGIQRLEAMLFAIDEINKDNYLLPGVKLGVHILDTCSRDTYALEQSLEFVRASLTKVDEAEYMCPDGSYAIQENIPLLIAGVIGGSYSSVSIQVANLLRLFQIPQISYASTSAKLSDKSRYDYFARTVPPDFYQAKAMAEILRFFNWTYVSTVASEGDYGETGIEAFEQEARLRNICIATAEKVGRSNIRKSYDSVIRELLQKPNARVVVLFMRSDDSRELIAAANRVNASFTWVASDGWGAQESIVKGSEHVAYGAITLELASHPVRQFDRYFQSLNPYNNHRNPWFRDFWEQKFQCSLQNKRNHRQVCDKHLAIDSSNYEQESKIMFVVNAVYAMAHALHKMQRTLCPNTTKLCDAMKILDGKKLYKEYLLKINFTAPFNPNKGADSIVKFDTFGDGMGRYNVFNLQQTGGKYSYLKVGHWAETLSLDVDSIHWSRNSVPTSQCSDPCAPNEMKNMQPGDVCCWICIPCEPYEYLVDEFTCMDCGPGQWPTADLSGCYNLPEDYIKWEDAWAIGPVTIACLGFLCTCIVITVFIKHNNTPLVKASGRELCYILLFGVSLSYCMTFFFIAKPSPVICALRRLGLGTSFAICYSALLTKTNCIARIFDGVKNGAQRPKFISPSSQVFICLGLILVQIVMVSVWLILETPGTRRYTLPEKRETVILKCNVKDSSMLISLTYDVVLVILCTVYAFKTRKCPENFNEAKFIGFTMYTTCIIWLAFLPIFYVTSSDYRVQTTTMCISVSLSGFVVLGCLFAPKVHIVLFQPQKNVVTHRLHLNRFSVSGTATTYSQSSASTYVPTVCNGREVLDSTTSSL

HEK293 = assay: EBV LMP1 TES2 canonical NF-kB signalling blockers – cell-based, HEK293, luciferase, cherry-pick, dose response (AID 588343); type: functional; details: Homo sapiens
[16] = NIH3T3 cell viability loss – ATP luminescence, mouse fibroblasts, counter-screen, dose response (AID 2010); type: functional, cell-based;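 note: cells exposed to compound for about 90 hours before reading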
[17] = general mammalian cell viability loss – activator set, cherry-pick, cytotoxicity control for miR-122 modulator project, dose response (AID 720690); type: functional, cell-based;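 note: HEK293T human cells scored for general mammalian cytotoxicity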
INS1 = assay: INS-1E survival protection against cytokine death – cell-based, luminescence, retest, dose response (AID 449756); type: functional; details: Rattus norvegicus;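 note: cell death triggered by IL-1 beta plus TNF-alpha plus IFN-gamma mixture; protective hits raise ATP signal compared with cytokine alone wells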
[18] = general mammalian cell viability loss – inhibitor set, cherry-pick, set 2, cytotoxicity control for miR-122 modulator project, dose response (AID 720697); type: functional, cell-based
cells = details: A549
[19] = toxicity toward HepG2 liver cells – cell-based, plate reader, cherry-pick, antagonist series, cytotoxicity control, dose response (AID 743416); type: functional
[20] = blockers of HIV-1 ZM109 envelope-driven cell-cell fusion – HeLa effector, CEM target cells, luciferase, cherry-pick, dose response (AID 652058); type: functional, cell-based;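 note: luciferase signal from HIV-1 Env mediated cell-cell fusion of effector and target cells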
[21] = HIV-1 AD8 envelope cell-cell fusion blockers – cherry-pick, dose response (AID 652062); type: functional, cell-based;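 note: luciferase signal from cell-cell fusion driven by HIV-1 clade B AD8 Env; potency is for inhibitors of fusion seen as a drop in luminescence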
[22] = blockade of melanocortin 4 receptor signaling – cell-based, plate reader, cherry pick, counter-screen for LGR2 antagonist project, dose response (AID 743444); type: functional;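 note: transfected HEK 293 cells stimulated with alpha-MSH peptide; potency of inhibitors of the alpha-MSH evoked signal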
[23] = A549 cell cytotoxicity, dose response, cytotoxicity control, plate reader, cherry-pick, antagonist series (AID 743412); type: functional, cell-based
[24] = viability loss in HEK293 cells – cell-based, plate reader, cherry-picked samples, cytotoxicity control, dose response (AID 743446); type: functional
[25] = blockers of HIV-1 envelope-mediated cell-cell fusion – cherry-pick, dose response (AID 652057); type: functional, cell-based
[26] = blockers of bursicon-stimulated LGR2 cAMP reporter – cell-based, HEK293, CRE-luciferase reporter, cherry pick, set 2, dose response (AID 743343); type: functional;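 note: transfected cells were stimulated with diluted bursicon conditioned medium after compound addition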
[27] = off-target signal loss in HeLa-CEM21 co-culture – HeLa F-luc CTL cells, cherry-picked, counter-screen for HIV-1 Env fusion inhibitor project, dose response (AID 652040); type: functional, cell-based;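 note: potency for signal decrease marking cytotoxic or nonspecific inhibition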
[28] = viability loss in CEM21 cells – cell-based, CellTiter-Glo luminescence, cherry-picked, cytotoxicity control for viral fusion inhibitor project, dose response (AID 652042); type: functional;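 note: potency for signal decrease meaning cytotoxicity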

With `COC(=O)C1=C(C)N(Cc2ccc(Cl)cc2)C(=S)NC1c1ccc(F)cc1` (centres undefined) as the molecule, how does the AC50 (Cryptococcus neoformans [1]) read?
Its AC50 is 35.4 µM (active).

And the AC50 (Cryptococcus neoformans [1]; Cryptococcus neoformans)?
Its AC50 is 23.6 µM (active).

And the AC50 (Cryptococcus neoformans [2])?
The AC50 was 43 µM (active).

With `COc1ccc(CC(=O)NO)cc1` as the molecule, how does the IC50 [3] read?
The IC50 was 20 µM (inactive).

With `C[C@@H]1CCCCO[C@@H](CN(C)S(C)(=O)=O)[C@@H](C)CN([C@@H](C)CO)C(=O)c2cc(NS(=O)(=O)c3ccc(Cl)cc3)ccc2O1` as the molecule, how does the AC50 [4] read?
Its AC50 is 17.6 µM (active).

Which results are given for `CC1CCCC(NC(=O)c2cccc(S(=O)(=O)N3CCN(c4ccccc4)CC3)c2)C1C` (centres undefined)?
AC50 [5]: > 70 µM (inactive); AC50 [6]: 4.29 µM (active); AC50 [7]: 3.14 µM (active); AC50 [8]: > 70 µM (inactive); AC50 [9]: 25.2 µM (active)

For `Cc1cc(C(=O)Nc2nc(-c3ccccn3)cs2)ccc1[N+](=O)[O-]`, which EC50 [10] is on record?
Its EC50 is > 150 µM (inactive).

And the IC50 [11]?
The IC50 was > 122 µM (inactive).

What about the EC50 [12] of the same molecule?
The EC50 was 1.25 µM (active).

What about the CC50 (Vero) of the same molecule?
The CC50 was > 25 µM (active).

And the EC50 [13]?
Its EC50 is 0.471 µM (active).

And the EC50 [14]?
The EC50 was 1.11 µM (active).

And the EC50 (Streptococcus)?
Its EC50 is 7.36 µM (active).

For `COc1ccc(C#Cc2ccc(C(=O)N3CC[C@H](O)C3)cc2)cc1`, which IC50 [15] is on record?
Its IC50 is 8.66 µM (active).

Which AC50 (HEK293) does the source give for `COc1ccc(C(NC(C)=O)c2cc(Cl)c3cccnc3c2O)cc1` (centres undefined) here?
The AC50 was 4.38 µM (active).

And the AC50 [5]?
The AC50 was 1.66 µM (active).

And the EC50 [16]?
The EC50 was 4.23 µM (active).

And the AC50 [17]?
The AC50 was 12.1 µM (active).

And the AC50 [7]?
The AC50 was 1.61 µM (active).

And the AC50 (INS1)?
Its AC50 is 1.95 µM (active).

What about the AC50 [8] of the same molecule?
Its AC50 is 3.17 µM (active).

What about the AC50 [18] of the same molecule?
The AC50 was 2.06 µM (active).

What about the EC50 [14] of the same molecule?
The EC50 was 1.47 µM (active).

With `CCN(CC)c1ccc2c(C)c(Cl)c(=O)oc2c1` as the molecule, how does the AC50 (cells) read?
Its AC50 is > 52 µM (inactive).

With `Cc1nc(N/N=C/c2ccccn2)sc1C` as the molecule, how does the AC50 [19] read?
The AC50 was 2.7 µM (active).

What about the AC50 [20] of the same molecule?
Its AC50 is 18.8 µM (active).

And the AC50 [21]?
Its AC50 is 6.45 µM (active).

And the AC50 [22]?
The AC50 was 0.949 µM (active).

What about the AC50 [23] of the same molecule?
Its AC50 is 5.22 µM (active).

And the AC50 [24]?
Its AC50 is 7.53 µM (active).

What about the AC50 (INS1) of the same molecule?
The AC50 was 3.83 µM (active).

What about the AC50 [25] of the same molecule?
Its AC50 is 3.74 µM (active).

And the AC50 [26]?
The AC50 was 0.573 µM (active).

And the AC50 [27]?
Its AC50 is 13.5 µM (active).

And the AC50 [28]?
Its AC50 is 6.02 µM (active).
